The values below come from patent US9637516B2, “Betulinic acid proline derivatives as HIV inhibitors” (HETERO RESEARCH FOUNDATION, priority 2012, dated 2017).

One data set relates to HIV-1 strain 92HT599. In words: Antiviral activity: p24 estimation in MT2 cells infected with HIV-1 strain 92HT599. Type of data set: cell-based. To be noted: for inhibition at 0.1 µM: Human immunodeficiency virus 1, 100 nM; for inhibition at 0.1 µM / inhibition at 1 µM: HIV-1 92HT599, p24, ~96 hours; for inhibition at 1 µM: Human immunodeficiency virus 1, 1000 nM; for IC50: Human immunodeficiency virus 1, HIV-1 92HT599, p24. Here is the method: MT2 cells were infected with HIV-1 strain 92HT599 (10 TCID 50/30000 cells). The infected cells were plated at the concentration of ˜30 000 cells per well in 96 well plate. Test compound was added to the micro plate in defined format with the final concentration of DMSO (vehicle) is not more than 1%. Incubation was carried out in CO2 incubator for ˜96 hours for viral infection. At the end of incubation period an aliquot from each well was taken for p24 estimation. The quantitation of p24 is an index for antiviral activity of the compound. Percent inhibition was calculated with reference to control values (vehicle controls). p-24 estimation was carried out using Advance biosciences kit as per the procedure detailed by supplier.

A further data set has as its system MT2 cells. The data set can be described thus: in vitro. The data set is classed as cell-based. To be noted: human, 1 µM. Here is the method: (§1) For cyto-toxicity assay the same amount of MT2 cells as in antiviral assay without virus was added to the 96 well plates. The cyto-toxicity was measured using MTT reagent in parallel with p24 estimation. The percent viability is calculated in comparison with vehicle control.

Another data set in a line: in vitro. Type of data set: cell-based. The settings on record: human, Cytotoxicity % viability. As for the experimental part: as §1
Data set [1] in a line: Single dose oral pharmacokinetic study. Type of data set: in vivo, mice. The settings on record: mouse, plasma. As for the experimental part:
The test item was administered through oral route to animals (rat/mice) at 30 mg/kg dose in a suitable vehicle at 10 ml/kg dose volume. Blood samples (˜50 uL at each time point) were collected from retro-orbital plexus using K3 EDTA as anticoagulant in eppendorf tubes at defined time intervals under light ether anesthesia. The samples were centrifuged at 3500×g to separate plasma and stored at −80° C. until analysis.
Sample analysis: Test samples were analyzed using LC-MS-MS after developing fit-for-purpose method for each of test compound.

Setting [2] is: Mice oral PK @30 mg/kg (Table 3).
[3] abbreviates: Mice oral PK @30 mg/kg (Table 4).

The term inhibition denotes the change of the read-out against control, counted positive when it falls. For orientation: viability means the share of living cells, or the viability signal relative to a control. Read a low viability as a greater loss of cells. As a reminder, the IC50 is the point on the concentration scale where inhibition reaches its midpoint. Usually AUC(0-t) stands for exposure summed from dosing to a finite time, without extrapolation to infinity. A high value points to more exposure. By Cmax is commonly meant the maximum level reached in the sampled fluid or tissue. In general, Tmax refers to the time from dosing to the highest level. In general, AUC(0-inf) refers to the area under the concentration-time curve extrapolated to infinity. The low end stands for low exposure, the high end for high exposure. A word on the half-life: it is how long it takes for the measured level to halve. Lower therefore signals rapid decline.

For `C=C(C)[C@@H]1CC[C@]2(C(=O)N3CCC[C@@H]3c3nc(-c4ccccc4)no3)CC[C@]3(C)[C@H](CC[C@@H]4[C@@]5(C)CC[C@H](OC(=O)CC(C)(C)CC(=O)O)C(C)(C)[C@@H]5CC[C@]43C)[C@@H]12` [Compound 2, 3,3-dimethyl-5-oxo-5-((1R,3aS,5aR,5bR,7aR,9S,11aR,11bR,13aR,13bR)-5a,5b,8,8,11a-pentamethyl-3a-((R)-2-(3-phenyl-1,2,4-oxadiazol-5-yl)pyrrolidine-1-carbonyl)-1-(prop-1-en-2-yl)icosahydro-1H-cyclopenta[a]chrysen-9-yloxy)pentanoic acid], in the data set on HIV-1 strain 92HT599, the inhibition at 0.1 µM is 30% and the inhibition at 1 µM was 90%. In the data set on MT2 cells, the Cytotoxicity % viability stood at 92%. Also, the viability at 1 µM in “in vitro” is 90%.
In the case of `C=C(C)[C@@H]1CC[C@]2(C(=O)N3CCC[C@@H]3c3nc(-c4cccnc4)no3)CC[C@]3(C)[C@H](CC[C@@H]4[C@@]5(C)CC[C@H](OC(=O)CC(C)(C)C(=O)O)C(C)(C)[C@@H]5CC[C@]43C)[C@@H]12` [Compound 3, 2,2-dimethyl-4-oxo-4-((1R,3aS,5aR,5bR,7aR,9S,11aR,11bR,13aR,13bR)-5a,5b,8,8,11a-pentamethyl-1-(prop-1-en-2-yl)-3a-((R)-2-(3-(pyridin-3-yl)-1,2,4-oxadiazol-5-yl)pyrrolidine-1-carbonyl)icosahydro-1H-cyclopenta[a]chrysen-9-yloxy)butanoic acid], in the data set with HIV-1 strain 92HT599, the inhibition at 0.1 µM is 100%, the inhibition at 1 µM is 100% and the IC50 is 3.34 nM. Besides, the Cytotoxicity % viability in the data set on MT2 cells came to 100%. Besides, the viability at 1 µM in the data set “in vitro” is 97%. In data set [1] (setting [2]), the AUC(0-t) turned out to be 66.5 µg·h/mL, the concentration peaked (Cmax) at 7430 ng/mL and the Tmax is 1.75 h.
On to `CC(C)(CC(=O)O[C@H]1CC[C@]2(C)[C@H]3CC[C@@H]4[C@H]5[C@H](C6(C)CC6)CC[C@]5(C(=O)N5CCC[C@@H]5c5nc(-c6ccccc6)no5)CC[C@@]4(C)[C@]3(C)CC[C@H]2C1(C)C)C(=O)O` [Compound 5, 2,2-dimethyl-4-oxo-4-((1R,3aS,5aR,5bR,7aR,9S,11aR,11bR,13aR,13bR)-5a,5b,8,8,11a-pentamethyl-1-(1-methylcyclopropyl)-3a-((R)-2-(3-phenyl-1,2,4-oxadiazol-5-yl)pyrrolidine-1-carbonyl)icosahydro-1H-cyclopenta[a]chrysen-9-yloxy)butanoic acid], for which, in the data set with HIV-1 strain 92HT599, the inhibition at 0.1 µM is 64% and the inhibition at 1 µM was 99%. Further, the Cytotoxicity % viability with MT2 cells worked out at 100%. Besides, in the data set “in vitro”, the viability at 1 µM is 91%.
Consider `C=C(C)[C@@H]1CC[C@]2(C(=O)N3CCC[C@H]3c3ncc(-c4ccccc4)[nH]3)CC[C@]3(C)[C@H](CC[C@@H]4[C@@]5(C)CC[C@H](OC(=O)CC(C)(C)C(=O)O)C(C)(C)[C@@H]5CC[C@]43C)[C@@H]12` [Compound 8, 2,2-dimethyl-4-oxo-4-((1R,3aS,5aR,5bR,7aR,9S,11aR,11bR,13aR,13bR)-5a,5b,8,8,11a-pentamethyl-3a-((S)-2-(5-phenyl-1H-imidazol-2-yl)pyrrolidine-1-carbonyl)-1-(prop-1-en-2-yl)icosahydro-1H-cyclopenta[a]chrysen-9-yloxy)butanoic acid], for which, in the data set with HIV-1 strain 92HT599, the inhibition at 0.1 µM was 100%, the inhibition at 1 µM is 100% and the IC50 is 12.9 nM. The compound further registered a Cytotoxicity % viability with MT2 cells of 88%. The same compound yielded a viability at 1 µM in “in vitro” of 96%. In addition, in data set [1] (setting [2]), the AUC(0-t) turned out to be 143 µg·h/mL, the peak level (Cmax) was 11100 ng/mL and the Tmax came to 3.75 h.
Turning to `C=C(C)[C@@H]1CC[C@]2(C(=O)N3CCC[C@H]3c3ncc(-c4ccccc4)[nH]3)CC[C@]3(C)[C@H](CC[C@@H]4[C@@]5(C)CC[C@H](OC(=O)CC(C)(C)CC(=O)O)C(C)(C)[C@@H]5CC[C@]43C)[C@@H]12` [Compound 9, 3,3-dimethyl-5-oxo-5-((1R,3aS,5aR,5bR,7aR,9S,11aR,11bR,13aR,13bR)-5a,5b,8,8,11a-pentamethyl-3a-((S)-2-(5-phenyl-1H-imidazol-2-yl)pyrrolidine-1-carbonyl)-1-(prop-1-en-2-yl)icosahydro-1H-cyclopenta[a]chrysen-9-yloxy)pentanoic acid], in the data set with HIV-1 strain 92HT599, the inhibition at 0.1 µM was 81% and the inhibition at 1 µM is 98%. In the data set on MT2 cells, the Cytotoxicity % viability is reported as 99%. Besides, in “in vitro”, the viability at 1 µM turned out to be 100%. Besides, in data set [1] (setting [2]), the AUC(0-t) was 58 µg·h/mL, the Cmax came to 5460 ng/mL and the Tmax came to 6 h.
For `C=C(C)[C@@H]1CC[C@]2(C(=O)N3CCC[C@H]3c3ncc(-c4cccnc4)[nH]3)CC[C@]3(C)[C@H](CC[C@@H]4[C@@]5(C)CC[C@H](OC(=O)CC(C)(C)C(=O)O)C(C)(C)[C@@H]5CC[C@]43C)[C@@H]12` [Compound 10, 2,2-dimethyl-4-oxo-4-((1R,3aS,5aR,5bR,7aR,9S,11aR,11bR,13aR,13bR)-5a,5b,8,8,11a-pentamethyl-1-(prop-1-en-2-yl)-3a-((S)-2-(5-(pyridin-3-yl)-1H-imidazol-2-yl)pyrrolidine-1-carbonyl)icosahydro-1H-cyclopenta[a]chrysen-9-yloxy)butanoic acid], in the data set on HIV-1 strain 92HT599, the inhibition at 0.1 µM is 100%, the inhibition at 1 µM is 100% and the IC50 was 0.8 nM. In the data set on MT2 cells, the Cytotoxicity % viability is reported as 81%. The compound further had a viability at 1 µM in “in vitro” of 82%. Further, in data set [1] (setting [2]), the AUC(0-t) stood at 40.5 µg·h/mL, the Cmax turned out to be 5840 ng/mL and the Tmax was determined as 1.13 h.
Consider `CC(C)(CC(=O)O[C@H]1CC[C@]2(C)[C@H]3CC[C@@H]4[C@H]5[C@H](C6(C)CC6)CC[C@]5(C(=O)N5CCC[C@H]5c5ncc(-c6ccccc6)[nH]5)CC[C@@]4(C)[C@]3(C)CC[C@H]2C1(C)C)C(=O)O` [Compound 12, 2,2-dimethyl-4-oxo-4-((1R,3aS,5aR,5bR,7aR,9S,11aR,11bR,13aR,13bR)-5a,5b,8,8,11a-pentamethyl-1-(1-methylcyclopropyl)-3a-((S)-2-(5-phenyl-1H-imidazol-2-yl)pyrrolidine-1-carbonyl)icosahydro-1H-cyclopenta[a]chrysen-9-yloxy)butanoic acid], for which, in the data set with HIV-1 strain 92HT599, the inhibition at 0.1 µM was 100%, the inhibition at 1 µM is 100% and the IC50 was 4.59 nM. In addition, the viability at 1 µM in the data set “in vitro” was found to be 85%. Further, in data set [1] (setting [2]), the AUC(0-t) worked out at 69.3 µg·h/mL, the peak level (Cmax) was 7260 ng/mL and the Tmax stood at 3 h.
For `CC1(C)C(C(=O)O)CC1C(=O)O[C@H]1CC[C@]2(C)[C@H]3CC[C@@H]4[C@H]5[C@H](C6(C)CC6)CC[C@]5(C(=O)N5CCC[C@H]5c5ncc(-c6ccc(F)cc6)[nH]5)CC[C@@]4(C)[C@]3(C)CC[C@H]2C1(C)C` (stereo partly drawn) [Compound 42, 3-((((1R,3aS,5aR,5bR,7aR,9S,11aR,11bR,13aR,13bR)-3a-((S)-2-(5-(4-fluorophenyl)-1H-imidazol-2-yl)pyrrolidine-1-carbonyl)-5a,5b,8,8,11a-pentamethyl-1-(1-methylcyclopropyl)icosahydro-1H-cyclopenta[a]chrysen-9-yl)oxy)carbonyl)-2,2-dimethylcyclobutane-1-carboxylic acid], in the data set on HIV-1 strain 92HT599, the concentration for half-maximal inhibition (IC50) is below 0.3 nM. Moreover, in data set [1] (setting [3]), the total exposure AUC(0-inf) came to 448 µg·h/mL, the AUC(0-t) amounted to 254 µg·h/mL, the Cmax was 9300 ng/mL and the half-life is 37.3 h.
`CC1(C)C(C(=O)O)CC1C(=O)O[C@H]1CC[C@]2(C)[C@H]3CC[C@@H]4[C@H]5[C@H](C6(C)CC6)CC[C@]5(C(=O)N5CCC[C@H]5c5ncc(-c6ccccc6)[nH]5)CC[C@@]4(C)[C@]3(C)CC[C@H]2C1(C)C` (stereo partly drawn) [Compound 43, 2,2-dimethyl-3-((((1R,3aS,5aR,5bR,7aR,9S,11aR,11bR,13aR,13bR)-5a,5b,8,8,11a-pentamethyl-1-(1-methylcyclopropyl)-3a-((S)-2-(5-phenyl-1H-imidazol-2-yl)pyrrolidine-1-carbonyl)icosahydro-1H-cyclopenta[a]chrysen-9-yl)oxy)carbonyl)cyclobutane-1-carboxylic acid]: the IC50 in the data set with HIV-1 strain 92HT599 was 4.4 nM. Also, in data set [1] (setting [3]), the AUC(0-inf) is 776 µg·h/mL, the AUC(0-t) came to 294 µg·h/mL, the Cmax turned out to be 13900 ng/mL and the half-life was 55.6 h.
